Values after ≈ are worked out from the molar mass of the structure shown.
How the values were obtained:
[1] = tested on: ai5γ group II intron (D135 ribozyme); assay: Fluorescent D135 ribozyme cleavage assay (IC50); format: biochemical, Saccharomyces cerevisiae; conditions: for IC50: D135 ribozyme cleavage of substrate 17/2 DL, 100 mM MgCl2, 500 mM KCl, 37° C., 10 minutes; for In vitro inhibitory activity, SAR statement (in words): relative to parent scaffold
Protocol: The D135 ribozyme (Su et al., 2005, Nucleic Acids Res, 33:6674-6687), fluorescently labeled oligo substrate 17/2 DL (FIG. 1A-FIG. 1D) (both at 20 nM final concentrations in 50 mM MOPS, pH 7.0, 100 mM MgCl2, 0.5M KCl), and the test compounds (final concentration of 10 μM in 50 mM MOPS, pH 7.0, 100 mM MgCl2, 0.5M KCl) were aliquoted onto black non-binding 384-well plates (Corning 3757) using the multidrop combi (ThermoFisherScientific) and pintool (V & P Scientific). The reaction mixtures were incubated at 37° C. for 45 minutes, then the reaction was quenched with 100 mM EDTA and fluorescence intensity was analyzed on a Tecan Infinite multimode plate reader (λex 520 nm, λem 560 nm, 5 nm bandwidth). Data were normalized to untreated wells and wells lacking the D135 ribozyme, and percent of inhibition was calculated using ActivityBase (IDBS). The Z′-factor was calculated as described (Zhang et al., 1999, J Biomol Screen, 4:67-73): Z′=1−3×(σp+σn)/|μp−μn|, • where μp and σn are mean value and standard deviation for the positive control (substrate only), and where μn and σn are mean value and standard deviation for the negative control (no compound). The average Z′-factor from the screen was 0.83±0.03. IC50 Measurement for the Small Molecule Inhibition of the D135 Ribozyme Cleavage Reaction.
Black 96-well plates (Corning 3695) were filled with 50 μl of solution containing 20 nM D135 ribozyme, 20 nM double-labeled substrate 17/2 DL and small molecule inhibitor in 50 mM MOPS, pH 7.0, 100 mM MgCl2 and 500 mM KCl. Small molecule inhibitors were tested at 19 different concentrations ranging from 5 nM to 1 mM. Plates were incubated at 37° C. for 10 minutes, then reaction mixtures were quenched with 100 mM EDTA and analyzed on the Synergy H1 plate reader (BioTek). Each experiment was performed in triplicate. Data were fit to a 4-parameter logistic function c+(d−c)/(1+(x/a)^b), where a is the IC50, b is the slope parameter, c is the minimum response and d is the maximum response. Data are reported as average±s.e.m

ai5γ group II intron = assay: Radioanalytic self-splicing assay of SE RNA (Ki); format: biochemical, Saccharomyces cerevisiae; conditions: 8 mM MgCl2, 100 mM KCl, pH 7.5, 30° C.
Protocol: Internally labeled SE RNA (2 nM) was incubated with various concentrations of inhibitor compound under near-physiological conditions (in 50 mM MOPS, pH 7.5, 8 mM MgCl2, 100 mM KCl) at 30° C. Aliquots at different time points were quenched and analyzed on 5% denaturing polyacrylamide gel as previously described (Daniels et al., 1996, Journal of molecular biology, 256:31-49). Data were fit to a single-exponential equation to determine the first order rate constants (kobs). The latter were then plotted against the concentration of the inhibitor and fit to the equation for non-competitive inhibition to determine Ki values: kobs=kmax/(1+[I]/Ki), where kobs and kmax are the first order rate constants measured in the presence and in the absence of the inhibitor, respectively, [I] is the concentration of the inhibitor and Ki is the inhibition constant. Experiments were performed four times for API-014, three times for APY-090, Intronistat A, and Intronistat B and twice for the remaining compounds to ensure reproducibility. Data represent average±s.e.m.

C. parapsilosis = assay: MIC determination against C. parapsilosis; format: cell-based, Candida parapsilosis; conditions: RPMI-1640, 35° C. or 37° C., turbidity after 24 and 48 hours; for MIC: Lodderomyces parapsilosis
Protocol: Minimal inhibitory concentrations (MICs) for C. parapsilosis were determined in a final volume of 100 μl. Fresh stock solutions of control antifungal drugs (Amphotericin B and Itraconazole) and of test compounds were prepared at 3.2 mg/ml and at 12.8 mg/ml respectively in DMSO. After placing the stock in the first well, solutions of test compounds and antifungal controls were serially diluted 1:2 with DMSO into the first […] successive wells of a 12-well row on a 96-well plate (as described above). After dilution, 2.5 μl from each of these 10 wells were transferred onto a separate 96-well plate and diluted with 122.5 μl of RPMI-1640 medium (Sigma). Wells 11 and 12 contained 2.5 μl DMSO and 122.5 μl of RPMI-1640 as a positive growth control (no compound) and sterility control (no inoculum added). A 50 μl volume was taken from each of the RPMI dilutions (wells 1-12) and transferred to the wells of a third 96-well plate (assay plate), where they were mixed with an equal volume (50 μl) of freshly prepared inoculum of C. parapsilosis in RPMI-1640 medium, set at a density to provide the 0.5×10^3 to 2.5×10^3 colony forming units per 1 mL (except for the sterility control). Sterility control was mixed with 50 μl of sterile medium.
The final concentration range of the assay was 0.25-128 μg/ml for test compounds and 0.0625-32 μg/ml for Amphotericin B and Itraconazole. The final concentration of DMSO was 1%. The assay plate was incubated at 35° C. or 37° C. and visually analyzed for turbidity after 24 and 48 hours of incubation. The lowest compound concentration at which no growth was apparent is reported as the MIC. All experiments were performed in triplicate.

HEK-293T cells = assay: Cytotoxicity in HEK-293T cells (Cell Titer Glo); format: cell-based, human; conditions: Homo sapiens, cytotoxicity, 24 hours with compound, read-out: IC50 HEK-293
Protocol: HEK-293T cells were cultured in Dulbecco's Modified Eagle's Medium (DMEM) (Gibco) supplemented with 10% Fetal Bovine Serum (FBS, Gibco) and 100 U/ml of Penicillin-Streptomycin (Gibco) at 37° C. and 5% CO2. For the cytotoxicity experiments, cells were aliquoted into black 96-well plates with a clear bottom (Corning 3603) at a concentration of 10,000 cells per well. The cells were grown at 37° C., 5% CO2 for 5-6 hours, then the medium was replaced with the same medium without FBS and cells were grown at 37° C., 5% CO2 for 24 hours. Freshly prepared stock solutions of test compounds (12.8 mg/ml in DMSO) were serially diluted 1:2 with DMSO into the first 11 successive wells of a 12-well row on a 96-well plate as described above. Well 12 was used as a growth control (no compound). […] After incubation, cell viability was determined using the luminescent Cell Titer Glo cell viability assay (Promega), in which 100 μl of the assay reagent was added to each well of the assay plate. After gentle shaking for 7-10 minutes, the plates were analyzed on a Synergy H1 plate reader (BioTek). Luminescence was plotted against the compound concentration and IC50 values were determined by fitting the data to a 4-parameter logistic function c+(d−c)/(1+(x/a)^b), where a is the IC50, b is the slope parameter, c is the minimum response and d is the maximum response. Experiments were replicated to ensure reproducibility.

S. cerevisiae = assay: Yeast respiration assay in S. cerevisiae (MIC in YPD / YPGE); format: cell-based, Saccharomyces cerevisiae; conditions: 30° C.
Protocol: Yeast respiration assays were conducted either in liquid YPD media (BD Bacto Yeast Extract, BD Bacto Peptone, 2% glucose) or in YPGE media (BD Bacto Yeast Extract, BD Bacto Peptone, 3% glycerol, 3% ethanol), essentially as described for the antifungal MIC assays (see below). To initiate these experiments, 100 μl of a fresh stock solution was prepared for each compound (3.2 mg/ml for Amphotericin B and 12.8 mg/ml for each test compounds) in DMSO. This concentrated stock solution was placed in the first well of 12-well row on a 96-well plate. The subsequent nine wells in this row contained 50 μl of DMSO for serial dilution. From the first well, 50 μl of the compound stock was withdrawn, transferred to the second well and mixed. This process was repeated from the second and subsequent wells, resulting in a 1:2 serial dilution of the stock into DMSO. Wells 11 and 12 contained DMSO only, to be used as no compound control and sterility control, with no inoculum added, respectively. After preparing this plate, 2.5 μl from each of the 12 wells was transferred to the wells of a separate 96-well plate, each of which contained 122.5 μl of YPD or YPGE medium, resulting in a set of serial dilutions of compound into growth media in a volume of 125 μl. Then 50 μl from each of these dilutions were transferred onto a third 96-well plate (the assay plate) and mixed with an equal volume (50 μl) of freshly prepared yeast inoculum in YPD or YPGE medium set to provide 0.5×10^3 to 2.5×10^3 colony forming units per 1 mL (wells 1-11), or YPD/YPGE alone (sterility control, well 12). The final compound concentration range of the assay was 0.25-128 μg/ml for test compounds and 0.0625-32 μg/ml for Amphotericin B. The final concentration of DMSO was 1%. Plates were incubated at 30° C. and visually analyzed for turbidity after 24 and 48 hours of incubation. The lowest compound concentration at which no growth was apparent is reported as the MIC (Table 1). All experiments were performed in triplicate.

SMILES	IC50 [1] [µM]	Ki (ai5γ group II intron) [µM]	MIC (C. parapsilosis) [µg/mL]	IC50 (HEK-293T cells) [µg/mL]	In vitro inhibitory activity, SAR statement (in words) [1]	MIC C. parapsilosis (C. parapsilosis) [µg/mL]	MIC in YPD (glucose) (S. cerevisiae; YPD medium) [µg/mL]	MIC in YPGE (glycerol) (S. cerevisiae; YPGE medium) [µg/mL]
O=C(CCc1ccc2ccccc2c1)c1cc(O)c(O)c(O)c1 [APY-076]	8	5.4	16 (≈ 51.9 µM)	7	–	–	–	–
COc1ccc(CNC(=O)c2cc(O)c(O)c(O)c2)cc1OC [APY-077, N-[(3,4-Dimethoxyphenyl)methyl]-3,4,5-trihydroxybenzamide]	30 ± 4	44 ± 11	64 (≈ 200 µM)	> 32	substantial loss of activity	–	–	–
COc1ccc(CCNC(=O)c2cc(O)c(O)c(O)c2)cc1OC [APY-078]	27	16	64 (≈ 192 µM)	> 128	–	–	–	–
C[C@H](NC(=O)c1cc(O)c(O)c(O)c1)c1cccc2ccccc12 [APY-079]	20	32	32 (≈ 99 µM)	4.6	–	–	–	–
O=C(c1cc(O)c(O)c(O)c1)c1cc2cc(Cl)cc(Cl)c2o1 [APY-083, 5-[(5,7-Dichloro-1-benzofuran-2-yl)carbonyl]benzene-1,2,3-triol]	3.3 ± 0.3	0.9 ± 0.1	8 (≈ 23.6 µM)	0.5 ± 0.1	without significant loss of function	–	–	–
CCN(CC)C(=O)c1ccc(-c2ccc3oc(C(=O)c4cc(O)c(O)c(O)c4)cc3c2)cc1 [APY-091, N,N-Diethyl-4-{2-[(3,4,5-trihydroxyphenyl)carbonyl]-1-benzofuran-5-yl}benzamide]	2.4 ± 0.4	4.5 ± 0.9	8 (≈ 18 µM)	5.35 ± 0.05	–	–	–	–
O=C(c1cc(O)c(O)c(O)c1)c1cc2cc(-c3ccc(C(F)(F)F)nc3)ccc2o1 [APY-097, 5-({5-[6-(Trifluoromethyl)pyridin-3-yl]-1-benzofuran-2-yl}carbonyl)benzene-1,2,3-triol]	2.8 ± 0.2	3.9 ± 0.5	8 (≈ 19.3 µM)	5.4 ± 0.6	–	–	–	–
O=C(c1cc2cc(-c3ccc(CO)cc3)ccc2o1)c1ccc(B(O)O)cc1F [APY-098, [3-Fluoro-4-({5-[4-(hydroxymethyl)phenyl]-1-benzofuran-2-yl}carbonyl)phenyl]boronic acid]	> 1000	> 1000	> 128	11 ± 3	nearly complete loss of activity	–	–	–
C[C@@H]1[C@H](O)[C@@H](C)/C=C/C=C/C=C/C=C/C=C/C=C/C=C/[C@H](O[C@@H]2O[C@H](C)[C@@H](O)[C@H](N)[C@@H]2O)C[C@@H]2O[C@](O)(C[C@@H](O)C[C@@H](O)[C@H](O)CC[C@@H](O)C[C@@H](O)CC(=O)O[C@H]1C)C[C@H](O)[C@H]2C(=O)O [Amphotericin B, reference compound]	–	–	–	–	–	0.5 to 1	2 (≈ 2.16 µM)	16 (≈ 17.3 µM)
COc1cccc(/C=N/NC(=O)c2cc(O)c(O)c(O)c2)c1O [Compound 2]	7.3	8	32 (≈ 101 µM)	34	–	–	–	–
CN(C)CCNC(=O)c1ccc2oc(C(=O)c3cc(O)c(O)c(O)c3)cc2c1 [NED-2018, N-(2-(dimethylamino)ethyl)-2-(3,4,5-trihydroxybenzoyl)-benzofuran-5-carboxamide]	9 ± 4	0.62 ± 0.03	16 (≈ 41.6 µM)	> 128	–	–	–	–
CCN(CC)CCNC(=O)c1ccc2oc(C(=O)c3cc(O)c(O)c(O)c3)cc2c1 [NED-2019, N-(2-(diethylamino)ethyl)-2-(3,4,5-trihydroxybenzoyl)-benzofuran-5-carboxamide]	4.8 ± 0.5	0.49 ± 0.03	8 (≈ 19.4 µM)	> 64	–	–	–	–
O=C(N/N=C/c1ccc(-c2ccc(Br)cc2)o1)c1cc(O)c(O)c(O)c1 [NED-2038, (E)-N′-((5-(4-bromophenyl)furan-2-yl)methylene)-3,4,5-trihydroxybenzohydrazide]	2.7 ± 0.5	1.7	32 (≈ 76.7 µM)	1.1	–	–	–	–

Reference: patent US12421257B2, “Compositions and methods for inhibiting group II intron RNA” (YALE UNIVERSITY, priority 2018, dated 2025)
